Literature values as cited in patent publication US20250025568A1, “COMBINATION OF ANTIBODY-DRUG CONJUGATE AND PARP1 SELECTIVE INHIBITOR” (AstraZeneca UK Limited, priority 2021, published 2025).
pIC50: −log10 of the molar value.

How the values were obtained:
WT DLD-1 = conditions: 4 day compound dosing; read-out: WT DLD-1 prolif 4 d IC50; cited from earlier work
BRCA2 −/− DLD-1 = conditions: 4 day compound dosing; read-out: BRCA2 −/− DLD-1 prolif 4 d IC50; cited from earlier work

SMILES: CNC(=O)c1ccc(N2CCN(Cc3ccc4nc(C(F)(F)F)c(=O)[nH]c4c3)CC2)c(F)n1 [Example 17, 6-fluoro-N-methyl-5-[4-[[3-oxo-2-(trifluoromethyl)-4H-quinoxalin-6-yl]methyl]piperazin-1-yl]pyridine-2-carboxamide]
- pIC50 (WT DLD-1): < 4.52
- pIC50 (BRCA2 −/− DLD-1): 7.70

SMILES: CNC(=O)c1ccc(N2CCN(Cc3ccc4nc(C(F)(F)F)c(=O)[nH]c4c3)CC2)cn1 [Example 15, N-methyl-5-[4-[[3-oxo-2-(trifluoromethyl)-4H-quinoxalin-6-yl]methyl]piperazin-1-yl]pyridine-2-carboxamide]
- pIC50 (WT DLD-1): < 4.52
- pIC50 (BRCA2 −/− DLD-1): 7.05

SMILES: CCc1nc2ccc(CN3CCN(c4ccc(C(=O)NC)nc4C(F)(F)F)CC3)cc2[nH]c1=O [Example 9, 5-[4-[(2-ethyl-3-oxo-4H-quinoxalin-6-yl)methyl]piperazin-1-yl]-N-methyl-6-(trifluoromethyl)pyridine-2-carboxamide]
- pIC50 (WT DLD-1): 4.77
- pIC50 (BRCA2 −/− DLD-1): 8.00

SMILES: CCc1nc2ccc(CN3CCN(c4ccc(C(=O)NC)nc4)CC3)cc2[nH]c1=O [Example 11, 5-[4-[(2-ethyl-3-oxo-4H-quinoxalin-6-yl)methyl]piperazin-1-yl]-N-methyl-pyridine-2-carboxamide]
- pIC50 (WT DLD-1): < 4.52
- pIC50 (BRCA2 −/− DLD-1): 6.74

SMILES: CCc1nc(C(=O)NC)ccc1N1CCN(Cc2ccc3nc(CC)c(=O)[nH]c3c2)CC1 [Example 8, 6-ethyl-5-[4-[(2-ethyl-3-oxo-4H-quinoxalin-6-yl)methyl]piperazin-1-yl]-N-methyl-pyridine-2-carboxamide]
- pIC50 (WT DLD-1): < 4.72

SMILES: CCc1nc2ccc(CN3CCN(c4ccc(C(=O)NC)nc4C(F)F)CC3)cc2[nH]c1=O [Example 10, 6-(difluoromethyl)-5-[4-[(2-ethyl-3-oxo-4H-quinoxalin-6-yl)methyl]piperazin-1-yl]-N-methyl-pyridine-2-carboxamide]
- pIC50 (WT DLD-1): < 4.52
- pIC50 (BRCA2 −/− DLD-1): 8.22

SMILES: CCc1cc2cnc(CN3CCN(c4ccc(C(=O)NC)nc4F)CC3)cc2[nH]c1=O [Example 2, 5-[4-[(3-ethyl-2-oxo-1H-1,6-naphthyridin-7-yl)methyl]piperazin-1-yl]-6-fluoro-N-methyl-pyridine-2-carboxamide]
- pIC50 (WT DLD-1): < 4.52
- pIC50 (BRCA2 −/− DLD-1): 8.10

SMILES: CCc1cc2ncc(CN3CCN(c4ccc(C(=O)NC)nc4C(F)F)CC3)cc2[nH]c1=O [Example 29, 6-(difluoromethyl)-5-[4-[(7-ethyl-6-oxo-5H-1,5-naphthyridin-3-yl)methyl]piperazin-1-yl]-N-methyl-pyridine-2-carboxamide]
- pIC50 (WT DLD-1): < 4.52
- pIC50 (BRCA2 −/− DLD-1): 8.15

SMILES: CNC(=O)c1ccc(N2CCN(Cc3ccc4nc(CCF)c(=O)[nH]c4c3)CC2)c(F)n1 [Example 26, 6-fluoro-5-[4-[[2-(2-fluoroethyl)-3-oxo-4H-quinoxalin-6-yl]methyl]piperazin-1-yl]-N-methyl-pyridine-2-carboxamide]
- pIC50 (WT DLD-1): 4.64
- pIC50 (BRCA2 −/− DLD-1): 8.30

SMILES: CNC(=O)c1ccc(N2CCN(Cc3ccc4nc(CCF)c(=O)[nH]c4c3)CC2)cn1 [Example 25, 5-[4-[[2-(2-fluoroethyl)-3-oxo-4H-quinoxalin-6-yl]methyl]piperazin-1-yl]-N-methyl-pyridine-2-carboxamide]
- pIC50 (WT DLD-1): < 4.60

SMILES: CCc1nc2ccc(CN3CCN(c4ccc(C(=O)NC)nc4Cl)CC3)cc2[nH]c1=O [Example 14, 6-chloro-5-[4-[(2-ethyl-3-oxo-4H-quinoxalin-6-yl)methyl]piperazin-1-yl]-N-methyl-pyridine-2-carboxamide]
- pIC50 (WT DLD-1): < 4.52
- pIC50 (BRCA2 −/− DLD-1): 8.22

SMILES: CCc1cc2ncc(CN3CCN(c4ccc(C(=O)NC)nc4F)CC3)cc2[nH]c1=O [Example 5, 5-[4-[(7-ethyl-6-oxo-5H-1,5-naphthyridin-3-yl)methyl]piperazin-1-yl]-6-fluoro-N-methyl-pyridine-2-carboxamide]
- pIC50 (WT DLD-1): < 4.52
- pIC50 (BRCA2 −/− DLD-1): 8.22

SMILES: CCc1cc2cnc(CN3CCN(c4ccc(C(=O)NC)nc4)CC3)cc2[nH]c1=O [Example 1, 5-[4-[(3-ethyl-2-oxo-1H-1,6-naphthyridin-7-yl)methyl]piperazin-1-yl]-N-methyl-pyridine-2-carboxamide]
- pIC50 (WT DLD-1): < 4.52
- pIC50 (BRCA2 −/− DLD-1): 8.00

SMILES: CCc1cc2cnc(CN3CCN(c4ccc(C(=O)NC)nc4Cl)CC3)cc2[nH]c1=O [Example 3, 6-chloro-5-[4-[(3-ethyl-2-oxo-1H-1,6-naphthyridin-7-yl)methyl]piperazin-1-yl]-N-methyl-pyridine-2-carboxamide]
- pIC50 (WT DLD-1): < 4.52
- pIC50 (BRCA2 −/− DLD-1): 8.40

SMILES: CNC(=O)c1ccc(N2CCN(Cc3ccc4nc(CC(F)F)c(=O)[nH]c4c3)CC2)c(F)n1 [Example 24, 5-[4-[[2-(2,2-difluoroethyl)-3-oxo-4H-quinoxalin-6-yl]methyl]piperazin-1-yl]-6-fluoro-N-methyl-pyridine-2-carboxamide]
- pIC50 (WT DLD-1): 4.85
- pIC50 (BRCA2 −/− DLD-1): 8.00

SMILES: CCc1nc2cc(F)c(CN3CCN(c4ccc(C(=O)NC)nc4F)CC3)cc2[nH]c1=O [Example 21, 5-[4-[(2-ethyl-7-fluoro-3-oxo-4H-quinoxalin-6-yl)methyl]piperazin-1-yl]-6-fluoro-N-methyl-pyridine-2-carboxamide]
- pIC50 (WT DLD-1): < 4.52
- pIC50 (BRCA2 −/− DLD-1): 7.80

SMILES: CNC(=O)c1ccc(N2CCN(Cc3ccc4nc(C(F)(F)F)c(=O)[nH]c4c3)CC2)c(Cl)n1 [Example 16, 6-chloro-N-methyl-5-[4-[[3-oxo-2-(trifluoromethyl)-4H-quinoxalin-6-yl]methyl]piperazin-1-yl]pyridine-2-carboxamide]
- pIC50 (WT DLD-1): < 4.66
- pIC50 (BRCA2 −/− DLD-1): 7.74

SMILES: CCc1nc2ccc(CN3CCN(c4ccc(C(=O)NC)nc4C)CC3)cc2[nH]c1=O [Example 13, 5-[4-[(2-ethyl-3-oxo-4H-quinoxalin-6-yl)methyl]piperazin-1-yl]-N, 6-dimethyl-pyridine-2-carboxamide]
- pIC50 (WT DLD-1): < 4.59
- pIC50 (BRCA2 −/− DLD-1): 8.30

SMILES: CCCc1nc2ccc(CN3CCN(c4ccc(C(=O)NC)nc4Cl)CC3)cc2[nH]c1=O [Example 19, 6-chloro-N-methyl-5-[4-[(3-oxo-2-propyl-4H-quinoxalin-6-yl)methyl]piperazin-1-yl]pyridine-2-carboxamide]
- pIC50 (WT DLD-1): < 4.52

SMILES: CNC(=O)c1ccc(N2CCN(Cc3ccc4nc(CC(F)(F)F)c(=O)[nH]c4c3)CC2)c(F)n1 [Example 28, 6-fluoro-N-methyl-5-(4-((3-oxo-2-(2,2,2-trifluoroethyl)-3,4-dihydroquinoxalin-6-yl)methyl)piperazin-1-yl) picolinamide]
- pIC50 (WT DLD-1): < 4.52
- pIC50 (BRCA2 −/− DLD-1): 7.57

SMILES: CCc1cc2ncc(CN3CCN(c4ccc(C(N)=O)nc4)CC3)cc2[nH]c1=O [Example 7, 5-[4-[(7-ethyl-6-oxo-5H-1,5-naphthyridin-3-yl)methyl]piperazin-1-yl]pyridine-2-carboxamide]
- pIC50 (BRCA2 −/− DLD-1): 5.38

SMILES: CNC(=O)c1ccc(N2CCN(Cc3ccc4nc(CC(F)(F)F)c(=O)[nH]c4c3)CC2)cn1 [Example 27, N-methyl-5-[4-[[3-oxo-2-(2,2,2-trifluoroethyl)-4H-quinoxalin-6-yl]methyl]piperazin-1-yl]pyridine-2-carboxamide]
- pIC50 (WT DLD-1): < 5.00
- pIC50 (BRCA2 −/− DLD-1): 4.99

SMILES: CCc1nc2ccc(CN3CCN(c4ccc(C(=O)NC)nc4F)CC3)cc2[nH]c1=O [Example 12, 5-[4-[(2-ethyl-3-oxo-4H-quinoxalin-6-yl)methyl]piperazin-1-yl]-6-fluoro-N-methyl-pyridine-2-carboxamide]
- pIC50 (WT DLD-1): < 4.52
- pIC50 (BRCA2 −/− DLD-1): 8.10

SMILES: CCCc1nc2ccc(CN3CCN(c4ccc(C(=O)NC)nc4F)CC3)cc2[nH]c1=O [Example 20, 6-fluoro-N-methyl-5-[4-[(3-oxo-2-propyl-4H-quinoxalin-6-yl)methyl]piperazin-1-yl]pyridine-2-carboxamide]
- pIC50 (WT DLD-1): < 4.62
- pIC50 (BRCA2 −/− DLD-1): 7.80

SMILES: CNC(=O)c1ccc(N2CCN(Cc3ccc4nc(C(C)(F)F)c(=O)[nH]c4c3)CC2)cn1 [Example 22, 5-[4-[[2-(1,1-difluoroethyl)-3-oxo-4H-quinoxalin-6-yl]methyl]piperazin-1-yl]-N-methyl-pyridine-2-carboxamide]
- pIC50 (WT DLD-1): < 4.52
- pIC50 (BRCA2 −/− DLD-1): 7.92

SMILES: CCCc1nc2ccc(CN3CCN(c4ccc(C(=O)NC)nc4)CC3)cc2[nH]c1=O [Example 18, N-methyl-5-[4-[(3-oxo-2-propyl-4H-quinoxalin-6-yl)methyl]piperazin-1-yl]pyridine-2-carboxamide]
- pIC50 (WT DLD-1): < 4.52
- pIC50 (BRCA2 −/− DLD-1): 5.31

SMILES: CCc1cc2ncc(CN3CCN(c4ccc(C(=O)NC)nc4Cl)CC3)cc2[nH]c1=O [Example 6, 6-chloro-5-[4-[(7-ethyl-6-oxo-5H-1,5-naphthyridin-3-yl)methyl]piperazin-1-yl]-N-methyl-pyridine-2-carboxamide]
- pIC50 (WT DLD-1): < 4.52
- pIC50 (BRCA2 −/− DLD-1): 8.22
